From PMC6295868, “Hybrid Inhibitors of Malarial Dihydrofolate Reductase with Dual Binding Modes That Can Forestall Resistance” (ACS Medicinal Chemistry Letters, 2018)
Where two headings read alike, the source gives them in different places.

What was measured:
[1] = tested on: P. falciparum V1/S (IRNL); experiment: microbe, parasite or virus in culture; assay type: cell-based; settings: Plasmodium falciparum, read-out: IC50 P. falciparum V1/S (IRNL)
[2] = tested on: P. falciparum CSL-2 (NRNL); experiment: microbe, parasite or virus in culture; assay type: cell-based; settings: Plasmodium falciparum, read-out: IC50 P. falciparum CSL-2 (NRNL)
[3] = tested on: P. falciparum TM4/8.2 (NCSI); experiment: microbe, parasite or virus in culture; assay type: cell-based; settings: Plasmodium falciparum, read-out: IC50 P. falciparum TM4/8.2 (NCSI)
[4] = tested on: P. falciparum K1CB1 (NRNI); experiment: microbe, parasite or virus in culture; assay type: cell-based; settings: Plasmodium falciparum, read-out: IC50 P. falciparum K1CB1 (NRNI)
P. falciparum W2 (IRNI) = experiment: microbe, parasite or virus in culture; assay type: cell-based; settings: Plasmodium falciparum, W2, read-out: IC50 P. falciparum W2 (IRNI)
[5] = tested on: surrogate cells (BL21(DE3) E. coli) expressing N51I+C59R+S108N+I164L quadruple mutant PfDHFR; experiment: Bacterial surrogate growth, cells expressing quadruple mutant PfDHFR; assay type: cell-based, Escherichia coli; settings: 100 µM BT1, M9 minimal medium, trimethoprim
[6] = tested on: surrogate cells (BL21(DE3) E. coli) expressing wild-type PfDHFR; experiment: Bacterial surrogate growth, cells expressing wild-type PfDHFR; assay type: cell-based, Escherichia coli; settings: 100 µM BT1, M9 minimal medium, trimethoprim
[7] = tested on: wild-type and Pyr-resistant mutant P. falciparum; experiment: microbe, parasite or virus in culture; assay type: cell-based; settings: Plasmodium falciparum, read-out: IC50 against both wild-type and Pyr-resistant mutant P. falciparum
in vitro = settings: African green monkey
hDHFR = target: T1, hDHFR (Homo sapiens, UniProt P00374); settings: read-out: Ki hDHFR
T1 sequence (P00374 1-187): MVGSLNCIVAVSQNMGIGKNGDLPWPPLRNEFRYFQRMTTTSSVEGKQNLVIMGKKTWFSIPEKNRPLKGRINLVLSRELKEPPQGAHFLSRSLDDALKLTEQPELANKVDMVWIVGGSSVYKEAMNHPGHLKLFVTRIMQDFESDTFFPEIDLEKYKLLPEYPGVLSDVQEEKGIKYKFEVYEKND

Vero cells = tested on: Vero cells; parameters: method as in PMID 11881993; settings: IC50 against Vero cells; read-out: cytotoxicity Vero cells; cited from earlier work
[8] = tested on: P. falciparum V1/S (IRNL); settings: ± SD; cited from earlier work

Compound	IC50 [1] [µM]	IC50 [2] [µM]	IC50 [3] [µM]	IC50 [4] [µM]	IC50 (P. falciparum W2 (IRNI)) [µM]	growth inhibition of surrogate cells [5]	growth inhibition of surrogate cells [6]	IC50 [7] [µM]	IC50 (in vitro) [µM]	Ki (hDHFR) [µM]	IC50 (Vero cells) [µM]	IC50 [8] [µM]
CCc1nc(N)nc(N)c1OCCCOc1cccc(-c2c(N)nc(N)nc2CC)c1 [BT1]	1.72 ± 0.69	0.51 ± 0.08	0.29 ± 0.05	0.22 ± 0.06	0.25 ± 0.05	completely inhibitory	completely inhibitory	< 5	5.94 ± 0.65	0.0225 ± 0.0029		
CCc1nc(N)nc(N)c1OCCCOc1ccc(-c2c(N)nc(N)nc2CC)cc1 [BT2S]	4.4 ± 0.71	3.95 ± 0.36	0.063 ± 0.014	1.84 ± 0.31	2.35 ± 0.1				6.3 ± 1.5	0.0202 ± 0.0033		
CCc1nc(N)nc(N)c1OCCCOc1ccc(-c2c(N)nc(N)nc2CC)cc1 [BT2]										0.0181 ± 0.0013		
CCc1nc(N)nc(N)c1-c1ccc(OCCCOc2ccc(-c3c(N)nc(N)nc3CC)cc2)cc1 [BT3S]	0.33 ± 0.023	0.31 ± 0.02	0.035 ± 0.0033	0.33 ± 0.038	0.3 ± 0.03				2.53 ± 0.44	0.0336 ± 0.0106		
CCc1nc(N)nc(N)c1-c1cccc(Cl)c1 [P30]											7	
Cc1nc(N)nc(N)c1OCCCOc1cc(Cl)c(Cl)cc1Cl [P65, reference compound]		4.4 ± 2.1		1.92 ± 0.53	2.27 ± 0.65				4.03 ± 0.41	0.0476 ± 0.004		
CCc1nc(N)nc(N)c1-c1ccc(Cl)cc1 [Pyr, pyrimethamine, reference compound]									> 100			> 100
